Measured values as given in the supplement of paper PMC10307832.

Columns and labels:
Assay in all cases: relative viability (nuclei count vs DMSO), 5 days (fraction); higher = more cells survive
NCI-H520 = tested on: NCI-H520
Method in brief: (§1)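 Lung cancer cell lines were pin-tool dosed in 1536-well plates on the day after seeding, with either a lone drug or a fixed anchor-drug dose plus five library-drug doses (not always all listed) in √10 steps. Nuclei were counted on 4× images after 5 days. Relative viability is the ratio of treated-well to vehicle-well nuclei counts, with each value a median of duplicate plates.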

NCI-H1975 = tested on: NCI-H1975
Method in brief: as §1

NCI-H1563 = tested on: NCI-H1563
Method in brief: as §1

EKVX = tested on: EKVX
Method in brief: as §1

NCI-H661 = tested on: NCI-H661
Method in brief: as §1

NCI-H2342 = tested on: NCI-H2342
Method in brief: as §1

NCI-H2228 = tested on: NCI-H2228
Method in brief: as §1

NCI-H1355 = tested on: NCI-H1355
Method in brief: as §1

H3255 = tested on: H3255
Method in brief: as §1

CAL-12T = tested on: CAL-12T
Method in brief: as §1

NCI-H2405 = tested on: NCI-H2405
Method in brief: as §1

LK-2 = tested on: LK-2
Method in brief: as §1

RERF-LC-KJ = tested on: RERF-LC-KJ
Method in brief: as §1

NCI-H1650 = tested on: NCI-H1650
Method in brief: as §1

NCI-H1755 = tested on: NCI-H1755
Method in brief: as §1

PC-14 = tested on: PC-14
Method in brief: as §1

PC-3 [JPC-3] = tested on: PC-3 [JPC-3]
Method in brief: as §1

HCC-15 = tested on: HCC-15
Method in brief: as §1

LCLC-97TM1 = tested on: LCLC-97TM1
Method in brief: as §1

HCC-827 = tested on: HCC-827
Method in brief: as §1

NCI-H1734 = tested on: NCI-H1734
Method in brief: as §1

NCI-H322M = tested on: NCI-H322M
Method in brief: as §1

CC(=O)O[C@@]12CO[C@@H]1C[C@H](O)[C@@]1(C)C(=O)[C@H](O)C3=C(C)[C@@H](OC(=O)[C@H](O)[C@@H](NC(=O)OC(C)(C)C)c4ccccc4)C[C@@](O)([C@@H](OC(=O)c4ccccc4)[C@H]21)C3(C)C [Docetaxel] + COc1cccc2cc(-c3nc([C@H]4CC[C@H](C(=O)O)CC4)n4ncnc(N)c34)[nH]c12 [OSI-027] (partner 0.5 µM)
relative viability (NCI-H520; first compound 0.0002 µM): 0.209 | relative viability (NCI-H520; first compound 0.000632 µM): 0.259 | relative viability (NCI-H520; first compound 0.002 µM): 0.276 | relative viability (NCI-H520; first compound 0.006325 µM): 0.257 | relative viability (NCI-H520; first compound 0.02 µM): 0.153 | relative viability (NCI-H1975; first compound 0.0002 µM): 0.66 | relative viability (NCI-H1975; first compound 0.000632 µM): 0.479 | relative viability (NCI-H1975; first compound 0.002 µM): 0.217 | relative viability (NCI-H1975; first compound 0.006325 µM): 0.16 | relative viability (NCI-H1975; first compound 0.02 µM): 0.11 | relative viability (NCI-H1563; first compound 0.0002 µM): 0.715 | relative viability (NCI-H1563; first compound 0.000632 µM): 0.79 | relative viability (NCI-H1563; first compound 0.002 µM): 0.738 | relative viability (NCI-H1563; first compound 0.006325 µM): 0.699 | relative viability (NCI-H1563; first compound 0.02 µM): 0.541 | relative viability (EKVX; first compound 0.0002 µM): 0.672 | relative viability (EKVX; first compound 0.000632 µM): 0.607 | relative viability (EKVX; first compound 0.002 µM): 0.35 | relative viability (EKVX; first compound 0.006325 µM): 0.272 | relative viability (EKVX; first compound 0.02 µM): 0.128 | relative viability (NCI-H661; first compound 0.0002 µM): 0.694 | relative viability (NCI-H661; first compound 0.000632 µM): 0.727 | relative viability (NCI-H661; first compound 0.002 µM): 0.521 | relative viability (NCI-H661; first compound 0.006325 µM): 0.29 | relative viability (NCI-H661; first compound 0.02 µM): 0.307 | relative viability (NCI-H2342; first compound 0.0002 µM): 0.592 | relative viability (NCI-H2342; first compound 0.000632 µM): 0.609 | relative viability (NCI-H2342; first compound 0.002 µM): 0.502 | relative viability (NCI-H2342; first compound 0.006325 µM): 0.46 | relative viability (NCI-H2342; first compound 0.02 µM): 0.423 | relative viability (NCI-H2228; first compound 0.0002 µM): 0.456 | relative viability (NCI-H2228; first compound 0.000632 µM): 0.147 | relative viability (NCI-H2228; first compound 0.002 µM): 0.159 | relative viability (NCI-H2228; first compound 0.006325 µM): 0.161 | relative viability (NCI-H2228; first compound 0.02 µM): 0.112 | relative viability (NCI-H1355; first compound 0.0002 µM): 0.431 | relative viability (NCI-H1355; first compound 0.000632 µM): 0.386 | relative viability (NCI-H1355; first compound 0.002 µM): 0.252 | relative viability (NCI-H1355; first compound 0.006325 µM): 0.275 | relative viability (NCI-H1355; first compound 0.02 µM): 0.198 | relative viability (H3255; first compound 0.0002 µM): 0.66 | relative viability (H3255; first compound 0.000632 µM): 0.67 | relative viability (H3255; first compound 0.002 µM): 0.51 | relative viability (H3255; first compound 0.006325 µM): 0.369 | relative viability (H3255; first compound 0.02 µM): 0.277 | relative viability (CAL-12T; first compound 0.0002 µM): 0.44 | relative viability (CAL-12T; first compound 0.000632 µM): 0.272 | relative viability (CAL-12T; first compound 0.002 µM): 0.186 | relative viability (CAL-12T; first compound 0.02 µM): 0.111 | relative viability (NCI-H2405; first compound 0.0002 µM): 0.666 | relative viability (NCI-H2405; first compound 0.000632 µM): 0.628 | relative viability (NCI-H2405; first compound 0.002 µM): 0.422 | relative viability (NCI-H2405; first compound 0.006325 µM): 0.333 | relative viability (NCI-H2405; first compound 0.02 µM): 0.255 | relative viability (LK-2; first compound 0.0002 µM): 0.208 | relative viability (LK-2; first compound 0.000632 µM): 0.186 | relative viability (LK-2; first compound 0.002 µM): 0.159 | relative viability (LK-2; first compound 0.006325 µM): 0.171 | relative viability (LK-2; first compound 0.02 µM): 0.153 | relative viability (RERF-LC-KJ; first compound 0.0002 µM): 0.564 | relative viability (RERF-LC-KJ; first compound 0.000632 µM): 0.543 | relative viability (RERF-LC-KJ; first compound 0.002 µM): 0.297 | relative viability (RERF-LC-KJ; first compound 0.006325 µM): 0.248 | relative viability (RERF-LC-KJ; first compound 0.02 µM): 0.161 | relative viability (NCI-H1650; first compound 0.0002 µM): 0.473 | relative viability (NCI-H1650; first compound 0.000632 µM): 0.301 | relative viability (NCI-H1650; first compound 0.006325 µM): 0.188 | relative viability (NCI-H1650; first compound 0.02 µM): 0.115 | relative viability (NCI-H1755; first compound 0.0002 µM): 0.677 | relative viability (NCI-H1755; first compound 0.000632 µM): 0.554 | relative viability (NCI-H1755; first compound 0.002 µM): 0.402 | relative viability (NCI-H1755; first compound 0.006325 µM): 0.39 | relative viability (NCI-H1755; first compound 0.02 µM): 0.353 | relative viability (PC-14; first compound 0.0002 µM): 0.759 | relative viability (PC-14; first compound 0.000632 µM): 0.549 | relative viability (PC-14; first compound 0.002 µM): 0.121 | relative viability (PC-14; first compound 0.006325 µM): 0.0548 | relative viability (PC-14; first compound 0.02 µM): 0.0206 | relative viability (PC-3 [JPC-3]; first compound 0.0002 µM): 0.703 | relative viability (PC-3 [JPC-3]; first compound 0.000632 µM): 0.79 | relative viability (PC-3 [JPC-3]; first compound 0.002 µM): 0.441 | relative viability (PC-3 [JPC-3]; first compound 0.02 µM): 0.15 | relative viability (HCC-15; first compound 0.0002 µM): 0.542 | relative viability (HCC-15; first compound 0.000632 µM): 0.246 | relative viability (HCC-15; first compound 0.002 µM): 0.205 | relative viability (HCC-15; first compound 0.006325 µM): 0.219 | relative viability (HCC-15; first compound 0.02 µM): 0.133 | relative viability (LCLC-97TM1; first compound 0.0002 µM): 0.696 | relative viability (LCLC-97TM1; first compound 0.000632 µM): 0.603 | relative viability (LCLC-97TM1; first compound 0.002 µM): 0.352 | relative viability (LCLC-97TM1; first compound 0.006325 µM): 0.182 | relative viability (LCLC-97TM1; first compound 0.02 µM): 0.118 | relative viability (HCC-827; first compound 0.0002 µM): 0.783 | relative viability (HCC-827; first compound 0.000632 µM): 0.848 | relative viability (HCC-827; first compound 0.002 µM): 0.52 | relative viability (HCC-827; first compound 0.006325 µM): 0.226 | relative viability (HCC-827; first compound 0.02 µM): 0.169 | relative viability (NCI-H1734; first compound 0.0002 µM): 0.573 | relative viability (NCI-H1734; first compound 0.000632 µM): 0.482 | relative viability (NCI-H1734; first compound 0.002 µM): 0.307 | relative viability (NCI-H1734; first compound 0.006325 µM): 0.35 | relative viability (NCI-H1734; first compound 0.02 µM): 0.242 | relative viability (NCI-H322M; first compound 0.0002 µM): 0.531 | relative viability (NCI-H322M; first compound 0.000632 µM): 0.532 | relative viability (NCI-H322M; first compound 0.002 µM): 0.471 | relative viability (NCI-H322M; first compound 0.006325 µM): 0.383 | relative viability (NCI-H322M; first compound 0.02 µM): 0.279
